Laboratory results taken from ChEMBL document CHEMBL3045118, “Synthesis and biological activities of new Mannich bases of chlorokojic acid derivatives” (Med Chem Res, 2011).
≈ marks a conversion by molar mass, not a printed value.

Experiments:
[1] = test system: Human respirovirus 3; assay: Antiviral activity against Human parainfluenza virus 3 infected African green monkey Vero cells assessed as concentration required to cause minimum inhibition of virus-induced cytopathic effect; format: functional
[2] = test system: Human respirovirus 3; assay: Antiviral activity against Human parainfluenza virus 3 infected African green monkey Vero cells assessed as concentration required to cause maximum inhibition of virus-induced cytopathic effect; format: functional
[3] = Cytotoxicity against Chlorocebus aethiops (African green monkey) Vero cells assessed as maximum non-toxic concentration; format: cell-based; conditions: chlorocebus sabaeus, read-out: MNCC
[4] = test system: Human alphaherpesvirus 1; assay: Antiviral activity against Human herpesvirus 1 infected bovine MDBK cells assessed as concentration required to cause minimum inhibition of virus-induced cytopathic effect; format: functional
[5] = test system: Human alphaherpesvirus 1; assay: Antiviral activity against Human herpesvirus 1 infected bovine MDBK cells assessed as concentration required to cause maximum inhibition of virus-induced cytopathic effect; format: functional
[6] = Cytotoxicity against Bos taurus (bovine) MDBK cells assessed as maximum non-toxic concentration; format: cell-based; conditions: cattle, read-out: MNCC
[7] = test system: Candida albicans; assay: Antifungal activity against Candida albicans ATCC 10231 by microdilution method; format: functional
[8] = test system: Candida parapsilosis; assay: Antifungal activity against Candida parapsilosis ATCC 22019 by microdilution method; format: functional; conditions: Lodderomyces parapsilosis
[9] = test system: Bacillus subtilis; assay: Antibacterial activity against ceftriaxon-resistant Bacillus subtilis by microdilution method; format: functional
[10] = test system: Enterococcus faecalis; assay: Antibacterial activity against cephalosporins and beta-lactam-resistant Enterococcus faecalis by microdilution method; format: functional
[11] = test system: Bacillus subtilis; assay: Antibacterial activity against Bacillus subtilis ATCC 6633 by microdilution method; format: functional
[12] = test system: Enterococcus faecalis; assay: Antibacterial activity against Enterococcus faecalis ATCC 29212 by microdilution method; format: functional
[13] = test system: Staphylococcus aureus; assay: Antibacterial activity against oxacillin, gentamicin, aztreonam, trimethoprim-sulfamethoxazole-resistant Staphylococcus aureus by microdilution method; format: functional
[14] = test system: Staphylococcus aureus; assay: Antibacterial activity against Staphylococcus aureus ATCC 25923 by microdilution method; format: functional
[15] = test system: Acinetobacter baumannii; assay: Antibacterial activity against trimethoprim-sulfamethoxazole, cefepime-resistant Acinetobacter baumannii by microdilution method; format: functional
[16] = test system: Acinetobacter baumannii; assay: Antibacterial activity against Acinetobacter baumannii RSKK 02026 by microdilution method; format: functional
[17] = test system: Klebsiella pneumoniae; assay: Antibacterial activity against ESbetaL positive trimethoprim-sulfamethoxazole, amoxicillin clavulonat, cefriaxon, cephepim, aztreonam-resistant Klebsiella pneumoniae by microdilution method; format: functional
[18] = test system: Klebsiella pneumoniae; assay: Antibacterial activity against Klebsiella pneumoniae RSKK 574 by microdilution method; format: functional
[19] = test system: Proteus mirabilis; assay: Antibacterial activity against Proteus mirabilis ATCC 7002 by microdilution method; format: functional
[20] = test system: Proteus mirabilis; assay: Antibacterial activity against ESbetaL positive rimethoprim-sulfamethoxazole, cefepime, tazobactam-resistant Proteus mirabilis by microdilution method; format: functional
[21] = test system: Pseudomonas aeruginosa; assay: Antibacterial activity against trimethoprim-sulfamethoxazole, tazobactam-resistant Pseudomonas aeruginosa by microdilution method; format: functional
[22] = test system: Pseudomonas aeruginosa; assay: Antibacterial activity against Pseudomonas aeruginosa ATCC 10145 by microdilution method; format: functional
[23] = test system: Escherichia coli; assay: Antibacterial activity against ESbetaL positive trimethoprim-sulfamethoxazole, cefepime, tazobactam-resistant Escherichia coli isolate by microdilution method; format: functional
[24] = test system: Escherichia coli; assay: Antibacterial activity against Escherichia coli ATCC 35218 by microdilution method; format: functional

Row | Compound | Activity [1] [µg/mL] | Activity [2] [µg/mL] | MNTC [3] [µg/mL] | Activity [4] [µg/mL] | Activity [5] [µg/mL] | MNTC [6] [µg/mL] | MIC [7] [µg/mL] | MIC [8] [µg/mL] | MIC [9] [µg/mL] | MIC [10] [µg/mL] | MIC [11] [µg/mL] | MIC [12] [µg/mL] | MIC [13] [µg/mL] | MIC [14] [µg/mL] | MIC [15] [µg/mL] | MIC [16] [µg/mL] | MIC [17] [µg/mL] | MIC [18] [µg/mL] | MIC [19] [µg/mL] | MIC [20] [µg/mL] | further results
1 | O=c1cc(CCl)oc(CN2CCN(c3ccc(Cl)c(Cl)c3)CC2)c1O | 0.05 | 0.4 | 0.4 | 0.1 | 0.4 | 1.6 | 16 (≈ 39.6 µM) | 16 (≈ 39.6 µM) | 64 (≈ 159 µM) | 64 (≈ 159 µM) | 16 (≈ 39.6 µM) | 8 (≈ 19.8 µM) | 64 (≈ 159 µM) | 8 (≈ 19.8 µM) | 32 (≈ 79.3 µM) | 64 (≈ 159 µM) | 64 (≈ 159 µM) | 32 (≈ 79.3 µM) | 32 (≈ 79.3 µM) | 64 | MIC [21]: 64 µg/mL; MIC [22]: 16 µg/mL (≈ 39.6 µM); MIC [23]: 64 µg/mL; MIC [24]: 64 µg/mL (≈ 159 µM)
2 | O=c1cc(CCl)oc(CN2CCN(c3ccc(Cl)cc3)CC2)c1O | 0.025 | 0.4 | 0.4 | 0.1 | 0.4 | 1.6 | 16 (≈ 43.3 µM) | 16 (≈ 43.3 µM) | > 128 | > 128 | 16 (≈ 43.3 µM) | 8 (≈ 21.7 µM) | > 128 | 8 (≈ 21.7 µM) | > 128 | 64 (≈ 173 µM) | > 128 | 64 (≈ 173 µM) | 64 (≈ 173 µM) | > 128 | MIC [21]: > 128 µg/mL; MIC [22]: 64 µg/mL (≈ 173 µM); MIC [23]: > 128 µg/mL; MIC [24]: 64 µg/mL (≈ 173 µM)
3 | O=c1cc(CCl)oc(CN2CCN(c3ccccc3Cl)CC2)c1O | 0.2 | 0.4 | 0.4 | 0.1 | 0.4 | 1.6 | 16 (≈ 43.3 µM) | 16 (≈ 43.3 µM) | > 128 | > 128 | 16 (≈ 43.3 µM) | 8 (≈ 21.7 µM) | > 128 | 8 (≈ 21.7 µM) | > 128 | 64 (≈ 173 µM) | > 128 | 64 (≈ 173 µM) | 64 (≈ 173 µM) | > 128 | MIC [21]: > 128 µg/mL; MIC [22]: 64 µg/mL (≈ 173 µM); MIC [23]: > 128 µg/mL; MIC [24]: 64 µg/mL (≈ 173 µM)
4 | O=c1cc(CCl)oc(CN2CCN(c3ccccc3F)CC2)c1O | 0.025 | 0.2 | 0.8 | 0.05 | 0.8 | 0.8 | 8 (≈ 22.7 µM) | 8 (≈ 22.7 µM) | 16 (≈ 45.4 µM) | 32 (≈ 90.7 µM) | 8 (≈ 22.7 µM) | 16 (≈ 45.4 µM) | 64 (≈ 181 µM) | 16 (≈ 45.4 µM) | 64 (≈ 181 µM) | 32 (≈ 90.7 µM) | 64 (≈ 181 µM) | 16 (≈ 45.4 µM) | 32 (≈ 90.7 µM) | 64 | MIC [21]: 64 µg/mL; MIC [22]: 32 µg/mL (≈ 90.7 µM); MIC [23]: 64 µg/mL; MIC [24]: 16 µg/mL (≈ 45.4 µM)
5 | O=c1cc(CCl)oc(CN2CCN(c3cccc(Cl)c3)CC2)c1O | 0.025 | 0.8 | 0.8 | 0.1 | 0.8 | 1.6 | 16 (≈ 43.3 µM) | 16 (≈ 43.3 µM) | 32 (≈ 86.7 µM) | 128 (≈ 347 µM) | 16 (≈ 43.3 µM) | 8 (≈ 21.7 µM) | 128 (≈ 347 µM) | 8 (≈ 21.7 µM) | 64 (≈ 173 µM) | 32 (≈ 86.7 µM) | 64 (≈ 173 µM) | 32 (≈ 86.7 µM) | 32 (≈ 86.7 µM) | 64 | MIC [21]: 64 µg/mL; MIC [22]: 32 µg/mL (≈ 86.7 µM); MIC [23]: 64 µg/mL; MIC [24]: 32 µg/mL (≈ 86.7 µM)
6 | COc1ccc(N2CCN(Cc3oc(CCl)cc(=O)c3O)CC2)cc1 | 0.05 | 0.8 | 1.6 | 0.1 | 1.6 | 1.6 | 8 (≈ 21.9 µM) | 8 (≈ 21.9 µM) | 64 (≈ 175 µM) | 64 (≈ 175 µM) | 32 (≈ 87.7 µM) | 32 (≈ 87.7 µM) | 64 (≈ 175 µM) | 32 (≈ 87.7 µM) | 32 (≈ 87.7 µM) | 16 (≈ 43.9 µM) | 32 (≈ 87.7 µM) | 16 (≈ 43.9 µM) | 32 (≈ 87.7 µM) | 64 | MIC [21]: 64 µg/mL; MIC [22]: 16 µg/mL (≈ 43.9 µM); MIC [23]: 64 µg/mL; MIC [24]: 32 µg/mL (≈ 87.7 µM)
7 | O=c1cc(CCl)oc(CN2CCN(c3ccc(C(F)(F)F)cc3)CC2)c1O | 0.025 | 0.4 | 0.4 | 0.05 | 0.8 | 0.8 | 8 (≈ 19.9 µM) | 8 (≈ 19.9 µM) | 64 (≈ 159 µM) | 32 (≈ 79.4 µM) | 8 (≈ 19.9 µM) | 8 (≈ 19.9 µM) | 64 (≈ 159 µM) | 16 (≈ 39.7 µM) | 64 (≈ 159 µM) | 16 (≈ 39.7 µM) | 64 (≈ 159 µM) | 32 (≈ 79.4 µM) | 16 (≈ 39.7 µM) | 64 | MIC [21]: 64 µg/mL; MIC [22]: 16 µg/mL (≈ 39.7 µM); MIC [23]: 64 µg/mL; MIC [24]: 16 µg/mL (≈ 39.7 µM)
